Values of other authors as cited in US20160304881A1, “DDR1 ANTAGONIST OR AN INHIBITOR OF DDR1 GENE EXPRESSION FOR USE IN THE PREVENTION OR TREATMENT OF CRESCENTIC GLOMERULONEPHRITIS” (INSERM (INSTITUT NATIONAL DE LA SANTE ET DE LA RECHERCHE …, priority 2011, published 2016).

Target: DDR1 (Homo sapiens, UniProt Q08345)
Settings: described in Day et al. (2008)

DDR1, sequence (Q08345 19-913): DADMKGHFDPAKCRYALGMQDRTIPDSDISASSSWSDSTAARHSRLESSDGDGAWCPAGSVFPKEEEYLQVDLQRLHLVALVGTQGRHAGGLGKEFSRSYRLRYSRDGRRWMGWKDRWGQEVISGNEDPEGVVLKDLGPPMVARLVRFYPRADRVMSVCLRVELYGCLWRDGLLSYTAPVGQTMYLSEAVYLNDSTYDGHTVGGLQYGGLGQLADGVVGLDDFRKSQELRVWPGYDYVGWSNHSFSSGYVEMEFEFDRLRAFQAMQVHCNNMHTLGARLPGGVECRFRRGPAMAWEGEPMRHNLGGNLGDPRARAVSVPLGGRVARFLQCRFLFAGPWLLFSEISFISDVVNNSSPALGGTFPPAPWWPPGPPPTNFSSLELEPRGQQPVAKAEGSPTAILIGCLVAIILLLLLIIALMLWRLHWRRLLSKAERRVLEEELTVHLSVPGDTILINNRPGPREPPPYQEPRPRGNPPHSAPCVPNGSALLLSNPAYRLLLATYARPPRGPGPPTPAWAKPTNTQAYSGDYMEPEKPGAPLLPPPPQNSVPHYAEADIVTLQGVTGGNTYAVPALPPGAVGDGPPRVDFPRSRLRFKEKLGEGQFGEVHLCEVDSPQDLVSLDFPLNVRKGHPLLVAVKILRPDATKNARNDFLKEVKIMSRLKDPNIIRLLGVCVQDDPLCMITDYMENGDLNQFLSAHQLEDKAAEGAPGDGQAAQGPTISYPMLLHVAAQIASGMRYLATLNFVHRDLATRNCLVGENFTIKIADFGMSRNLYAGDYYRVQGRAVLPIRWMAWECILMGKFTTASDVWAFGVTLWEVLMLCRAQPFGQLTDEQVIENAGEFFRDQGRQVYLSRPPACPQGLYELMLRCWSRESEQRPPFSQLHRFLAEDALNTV

Row | Compound | collagen-induced DDR1 activation
1 | Cc1nc(Nc2ncc(C(=O)Nc3c(C)cccc3Cl)s2)cc(N2CCN(CCO)CC2)n1 [dasatinib, N-(2-chloro-6-methylphenyl)-2-[[6-[4-(2-hydroxyethyl)-1-piperazinyl]-2-methyl-4-pyrimidinyl]amino]-5-thiazole carboxamide] | inhibitors of collagen-induced DDR1 activation
2 | Cc1cn(-c2cc(NC(=O)c3ccc(C)c(Nc4nccc(-c5cccnc5)n4)c3)cc(C(F)(F)F)c2)cn1 [nilotinib, 4-methyl-N-[3-(4-methyl-1H-imidazol-1-yl)-5-(trifluoromethyl)phenyl]-3-[(4-pyridin-3-ylpyrimidin-2-yl)amino]benzamide] | inhibitors of collagen-induced DDR1 activation
